Reference: patent US20080171710A1, “The Redox/Fyn/c-Cbl Pathway” (priority 2007, published 2008)

What was measured:
Erk1/2 = assay type: cell-based, rat
Akt = assay type: cell-based, rat
Outline: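 Cells deprived of PDGF-AA for 5 h, then re-exposed to PDGF-AA (10 ng/ml) for 1 h. Lysates in RIPA buffer resolved by SDS-PAGE and immunoblotted with phospho-specific and total Akt or Erk antibodies, detected by HRP chemiluminescence.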

PDGFRα [1] = assay type: cell-based, rat
PDGFRα [2] = assay: PDGFRα phosphorylation (Western blot, anti-PDGFRα(pY742)); assay type: cell-based, rat
Description: The cells were then collected and lysed for Western blotting. […] Cells were lysed for Western blot analysis using anti-PDGFRα(pY742) antibody. The membranes were de-probed and then re-probed with antibody against total PDGFRα and anti-β-tubulin antibody. […]
Anti-phosphorylated Erk monoclonal, anti-Erk monoclonal, anti-TrkC polyclonal anti-Fyn polyclonal, anti-EGFR polyclonal, anti-c-Met polyclonal, anti-phospho-tyrosine monoclonal, and anti-PDGFRα polyclonal antibodies were obtained from Santa Cruz Biotechnology (Santa Cruz, Calif., United States). Anti-c-Cbl monoclonal antibody was obtained from BD PharMingen (San Diego, Calif., United States). Anti-phosphorylated Akt monoclonal and anti-Akt polyclonal antibodies were obtained from Cell Signaling Technology (Beverly, Mass., United States). Anti-phosphorylated PDGPRα polyclonal antibody was obtained from Biosource (Carlsbad, Calif., United States). The cell culture samples were collected and lysed in RAPI buffer, whereas dissected tissue samples were sonicated in RAPI buffer. Samples were resolved on SDS-PAGE gels and transferred to PVDF membranes (PerkinElmer Life Science. Wellesley, Mass., United States), After being blocked in 5% skim milk in PBS containing 0.1% Tween 20, membranes were incubated with a primary antibody, followed by incubation with an HRP-conjugated secondary antibody (Santa Cruz Biotechnology). Membranes were visualized using Western Blotting Luminol Reagent (Santa Cruz Biotechnology). All analyses of signaling pathway components were conducted in the presence of ligand for the receptor pathway under analysis (either PDGF-AA for PDGFRα, NT-3 or TrkC, HGF for c-Met, or EGF for EGFR).

c-Cbl = assay type: cell-based, rat
Outline: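 Pre-cleared cell lysates (250 μg total protein) immunoprecipitated with anti-c-Cbl or anti-PDGFRα antibody (2 h, 4° C), then protein A/G agarose overnight at 4° C. Precipitates run on 8% SDS-PAGE and Western blotted with anti-p-Tyr (c-Cbl phosphorylation) or anti-ubiquitin (PDGFR ubiquitylation).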

O-2A/OPCs = assay: In vitro BrdU incorporation assay; assay type: cell-based, rat
Outline: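 Surface antigens stained on live or 2% paraformaldehyde-fixed cells; intracellular ones after ice-cold methanol (4 min) or 0.5% Triton (15 min). Fluorescent secondary antibodies applied for 20 min.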

[3] = test system: NF-κB-luciferase reporter; assay: NF-κB-luciferase reporter assay; assay type: cell-based, rat
Method: (§1) Cells were deprived of PDGF-AA for 5 h before re-exposure to PDGF-AA (10 ng/ml) for 1 h for Western blot or 6 h for luciferase assays of pathway activation. Transient transfection was performed using Fugene6 (Roche, Basel, Switzerland ) transfection solution according to the manufacturer's protocol. For the luciferase assay, cells seeded in 12-well plates were transfected with a reporter plasmid SRE-Luc(firefly) or NF-κB-Luc(firefly) (BD-Clontech, Palo Alto, Calif., United States) and an internal control plasmid pRLSV40-LUC. Analyses of luciferase activity were performed according to the protocol of the Dual Luciferase Assay System (Promega, Madison, Wis., United States), which uses an internal control of Renilla luciferase for quantification, and relative light units were measured using a luminometer.

EGFR = assay type: cell-based, rat
Outline: (§2)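 Western blot of cell lysates or sonicated tissue in RAPI buffer, SDS-PAGE to PVDF, primary antibodies (phospho-Erk, phospho-Akt, receptor, phospho-tyrosine), HRP secondary and luminol detection. Signaling analysed in presence of the cognate ligand: EGF for EGFR, NT-3 for TrkC, HGF for c-Met.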

c-Met = assay type: cell-based, rat
Outline: as §2

SRE-luciferase reporter = SRE-luciferase reporter assay; assay type: cell-based, rat
Method: as §1

Fyn = molecular target: T1, Fyn (Rattus norvegicus, UniProt Q62844); assay type: cell-based
T1 construct: 250 μg of total cell lysates were immunoprecipitated with anti-Fyn antibody; endogenous in cells; host or cells: primary rat O-2A/OPCs
Outline: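 Rat O-2A/OPC lysates (250 μg total protein) immunoprecipitated with anti-Fyn antibody. Washed Fyn immune complexes assayed for tyrosine kinase activity with a universal tyrosine kinase kit.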

[4] = 30 nM MeHg, 1 μM Pb, 5 μM paraquat
[5] = NAC 1 mM, PP1 100 nM or ICI 182,780 200 nM with TMX
[6] = 1 mM NAC in the absence of toxicants
[7] = added 1 h before Pb or paraquat

T1 sequence (Q62844 whole entry): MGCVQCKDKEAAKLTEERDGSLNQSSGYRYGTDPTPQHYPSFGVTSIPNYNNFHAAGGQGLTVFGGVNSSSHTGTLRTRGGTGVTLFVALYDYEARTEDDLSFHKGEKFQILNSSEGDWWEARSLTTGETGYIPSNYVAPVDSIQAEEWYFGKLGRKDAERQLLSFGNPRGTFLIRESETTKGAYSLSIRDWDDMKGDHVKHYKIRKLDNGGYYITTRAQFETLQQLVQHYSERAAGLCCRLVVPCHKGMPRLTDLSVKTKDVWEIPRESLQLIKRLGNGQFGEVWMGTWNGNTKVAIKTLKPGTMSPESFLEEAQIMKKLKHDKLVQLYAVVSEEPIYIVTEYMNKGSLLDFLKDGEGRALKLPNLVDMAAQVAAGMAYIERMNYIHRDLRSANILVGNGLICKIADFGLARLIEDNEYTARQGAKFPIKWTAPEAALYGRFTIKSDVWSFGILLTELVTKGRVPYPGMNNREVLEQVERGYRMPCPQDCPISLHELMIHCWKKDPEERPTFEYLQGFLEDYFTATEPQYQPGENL

**Q.** For `[CH3][Hg][Cl]` [MeHg, methylmercury], which “NT-3-induced Erk1/2 phosphorylation” value (Erk1/2; 30 nM MeHg) is on record?
**A.** Its value is “no reduction in Erk1/2 phosphorylation”.

**Q.** And the “PDGF-induced Erk1/2 phosphorylation after toxicant exposure” value (Erk1/2; 30 nM MeHg 24 h, 1 μM Pb, 5 μM paraquat)?
**A.** The value was “reduced ERK1/2 phosphorylation”.

**Q.** What about the “PDGF-induced Akt phosphorylation” value (Akt; 30 nM MeHg, 24 h) of the same compound?
**A.** The value was “decreased”.

**Q.** And the “PDGFRα loss in the presence of cycloheximide” value (PDGFRα [1]; MeHg 20 nM plus cycloheximide, versus cycloheximide alone)?
**A.** The value was “further accelerated receptor loss”.

**Q.** And the “total levels of PDGFRα after toxicant exposure” value (PDGFRα [1]; MeHg 30 nM, 1 μM Pb, 5 μM paraquat)?
**A.** The value was “reduction in levels of the PDGFRα itself”.

**Q.** What about the “phosphorylation of PDGFRα after toxicant exposure” value (PDGFRα [2]; [4]) of the same compound?
**A.** Its value is “also reduced”.

**Q.** What about the “c-Cbl phosphorylation after toxicant exposure” value (c-Cbl; [4]) of the same compound?
**A.** The value was “stimulated”.

**Q.** And the “drop in the percentage of O-2A/OPCs incorporating BrdU” value (O-2A/OPCs; 20 nM MeHg, stimulation with PDGF)?
**A.** Its value is “approximately 25%”.

**Q.** And the “PDGF-induced NF-κB-luciferase reporter expression” value ([3]; 30 nM MeHg, 24 h)?
**A.** The value was “decreased”.

**Q.** And the “levels of EGFR after toxicant exposure” value (EGFR; MeHg, Pb or paraquat)?
**A.** The value was “reductions”.

**Q.** And the “levels of c-Met after toxicant exposure” value (c-Met; MeHg, Pb or paraquat)?
**A.** Its value is “reductions”.

**Q.** And the “NT-3-induced expression from SRE-luciferase reporter” value (SRE-luciferase reporter; 30 nM MeHg)?
**A.** Its value is “no reduction in NT-3-induced expression”.

**Q.** What about the “PDGF-induced SRE-luciferase reporter expression” value (SRE-luciferase reporter; 30 nM MeHg, 24 h) of the same compound?
**A.** The value was “reduced expression”.

**Q.** What about the “Fyn activation after toxicant exposure” value (Fyn; [4]) of the same compound?
**A.** Its value is “stimulated Fyn activation”.

**Q.** How did the “effect on EtOH suppression of Erk1/2 phosphorylation” value (Erk1/2; 1 mM NAC with EtOH) turn out when `CC(=O)N[C@@H](CS)C(=O)O` [NAC, N-acetyl-L-cysteine] was run?
**A.** The value was “rescued”.

**Q.** And the “effect on Aβ(1-42) suppression of PDGF-mediated Erk1/2 phosphorylation” value (Erk1/2; co-exposure with Aβ(1-42))?
**A.** The value was “blocked”.

**Q.** What about the “effect on MeHg-associated suppression of Erk1/2 phosphorylation” value (Erk1/2; co-treatment with MeHg) of the same compound?
**A.** The value was “rescued”.

**Q.** And the “effect on Pb and paraquat effects on Erk1/2 phosphorylation” value (Erk1/2; co-treatment with Pb or paraquat)?
**A.** The value was “protected”.

**Q.** What about the “effect on EtOH suppression of Akt phosphorylation” value (Akt; 1 mM NAC with EtOH) of the same compound?
**A.** The value was “rescued”.

**Q.** And the “effect on MeHg suppression of Akt phosphorylation” value (Akt; 1 mM NAC with MeHg)?
**A.** The value was “rescued”.

**Q.** What about the “effect on TMX-induced reductions in levels of PDGFRα” value (PDGFRα [1]; [5]) of the same compound?
**A.** Its value is “blocked”.

**Q.** What about the “effect on EtOH-induced reduction of PDGFRα levels” value (PDGFRα [1]; NAC added 1 hr before EtOH) of the same compound?
**A.** The value was “substantial rescue”.

**Q.** And the “effect on Aβ-induced reduction in PDGFRα levels” value (PDGFRα [1]; co-exposure with Aβ)?
**A.** The value was “blocked”.

**Q.** What about the “effect on MeHg-induced reductions in levels of PDGFRα” value (PDGFRα [1]; together with MeHg) of the same compound?
**A.** Its value is “prevented”.

**Q.** And the “effect on Pb- and paraquat-induced reductions in levels of PDGFRα” value (PDGFRα [1]; together with Pb (1 μM) or paraquat (5 μM))?
**A.** Its value is “protected”.

**Q.** What about the “effect on MeHg-induced suppression of PDGFRα phosphorylation” value (PDGFRα [2]; co-exposure with MeHg) of the same compound?
**A.** Its value is “rescued”.

**Q.** What about the “effect on levels of c-Cbl phosphorylation without toxicant” value (c-Cbl; [6]) of the same compound?
**A.** Its value is “did not have any marked effect”.

**Q.** What about the “effect on TMX-induced activation of c-Cbl” value (c-Cbl; [5]) of the same compound?
**A.** The value was “blocked”.

**Q.** And the “effect on MeHg-induced c-Cbl phosphorylation” value (c-Cbl; added 1 h before MeHg)?
**A.** Its value is “blocked”.

**Q.** What about the “effect on Pb- and paraquat-induced c-Cbl phosphorylation” value (c-Cbl; [7]) of the same compound?
**A.** Its value is “blocked”.

**Q.** And the “effect on Aβ-induced increase in phosphorylated c-Cbl” value (c-Cbl; co-exposure with Aβ)?
**A.** Its value is “blocked”.

**Q.** And the “effect on TMX effect on cell proliferation” value (O-2A/OPCs; with TMX, 2 days)?
**A.** The value was “blocked”.

**Q.** And the “effect on MeHg suppression of Nf-κB reporter activity” value ([3]; 1 mM NAC with MeHg)?
**A.** Its value is “rescued normal level”.

**Q.** What about the “effect on EtOH-induced reduction of EGFR levels” value (EGFR; NAC added 1 hr before EtOH) of the same compound?
**A.** The value was “substantial rescue”.

**Q.** And the “effect on toxicant-associated reductions in EGFR levels” value (EGFR; NAC with MeHg, Pb, or paraquat)?
**A.** Its value is “protected”.

**Q.** And the “effect on EtOH-induced reduction of c-Met levels” value (c-Met; NAC added 1 hr before EtOH)?
**A.** The value was “substantial rescue”.

**Q.** What about the “effect on toxicant-associated reductions in c-Met levels” value (c-Met; NAC with MeHg, Pb, or paraquat) of the same compound?
**A.** The value was “protected”.

**Q.** What about the “effect on MeHg suppression of SRE reporter activity” value (SRE-luciferase reporter; 1 mM NAC with MeHg) of the same compound?
**A.** The value was “rescued normal level”.

**Q.** What about the “effect on basal Fyn activity” value (Fyn; [6]) of the same compound?
**A.** Its value is “only a slight, insignificant effect”.

**Q.** What about the “effect on TMX-induced activation of Fyn” value (Fyn; [5]) of the same compound?
**A.** Its value is “blocked”.

**Q.** And the “effect on MeHg-induced Fyn activation” value (Fyn; added 1 h before MeHg)?
**A.** The value was “blocked”.

**Q.** And the “effect on Pb- and paraquat-induced Fyn activation” value (Fyn; [7])?
**A.** Its value is “blocked”.
